In patent US20180353483A1, “PHARMACEUTICAL COMPOSITIONS AND METHODS FOR INDOLEAMINE, 2, 3-DIOXYGENASE INHIBITION AND INDICATIONS THEREFOR” (Incyte Corporation, priority 2015, published 2018):
Where “and” joins values, the source holds several entries; their conditions need not be identical. Equal values may be shown once.

Experiment: Pharmacokinetics of Compound 1 in combination with MK-3475 in subjects with various cancers
Type: in vivo, human
Method: The subjects were not limited to a specific cancers and study include subjects with various cancers. […] One treatment cycle consisted of 21 days. […] Additional subjects were enrolled in a cohort to achieve the minimum of 3 evaluable subjects if dropouts or dose interruptions or reductions occur that result in a subject being non-evaluable for DLTs. […] An additional safety cohort was opened at 100 mg BID in parallel to 300 mg BID being tested. This may also be limited to subjects with melanoma, NSCLC, or specific cancer types from among those included in Phase 1. The RP2D was selected from the evaluated safety expansions.
If a dose was missed by more than 4 hours, that dose was skipped and was resumed at the scheduled time.
Pharmacokinetic samples were obtained at the visits of Cycle 1 Day 1, Cycle 1 Day 8 and Cycle 2 Day 1. […] The exact date and time of the PK blood draws were recorded in the eCRF along with the date and time of the last dose of study drug and details of the last meal preceding the blood draw.
The planned PK time points were used for preliminary PK analyses.

[1] = Cohort 1, 25 mg, first dose, geometric mean
[2] = Cohort 1, 25 mg, first dose, mean ± SD
[3] = Cohort 6, 300 mg BID, steady state C1D8, mean ± SD
[4] = Diagnosis DLBCL, steady state C1D8, individual values of 2 subjects
[5] = Diagnosis RCC, first dose, individual values of 2 subjects

NS(=O)(=O)NCCNc1nonc1C(=NO)Nc1ccc(F)c(Br)c1 [Compound 1, 4-({2-[(aminosulfonyl)amino]ethyl}amino)-N-(3-bromo-4-fluorophenyl)-N′-hydroxy-1,2,5-oxadiazole-3-carboximidamide]
tmax (All diagnoses, first dose, median): 2.00 h | CL/F (All diagnoses, steady state C1D8, mean ± SD): 28.7 ± 10.3 L/h | tmax (All diagnoses, steady state C1D8, median): 2.00 h | CL/F (Cohort 1, 25 mg BID, steady state C1D8, mean ± SD): 46.2 ± 8.91 L/h | tmax (Cohort 1, 25 mg BID, steady state C1D8, median): 1.00 h | AUC(0-t) [1]: (0.650) μM * h | Cmax [1]: 199 nM | AUC(0-t) [2]: 0.711 ± 0.349 µM·h | Cmax [2]: 231 ± 151 nM | tmax (Cohort 1, 25 mg, first dose, median): 2.00 h | CL/F (Cohort 2, 50 mg BID, steady state C1D8, mean ± SD): 52.6 ± 22.4 L/h | tmax (Cohort 2, 50 mg BID, steady state C1D8, median): 2.00 h | Cmax (Cohort 2, 50 mg, first dose, geometric mean): 543 nM | tmax (Cohort 2, 50 mg, first dose, median): 2.00 h | Cmax (Cohort 3, 100 mg BID, steady state C1D8, geometric mean): 814 nM | CL/F (Cohort 3, 100 mg BID, steady state C1D8, mean ± SD): 67.4 ± 34.9 L/h | tmax (Cohort 3, 100 mg BID, steady state C1D8, median): 2.00 h | CL/F (Cohort 4 (MEL), 50 mg BID, steady state C1D8, mean ± SD): 78.3 ± 28.9 L/h | tmax (Cohort 4 (MEL), 50 mg, first dose, median): 1.00 h | Cmax (Cohort 5, 100 mg BID, steady state C1D8, geometric mean): 803 nM | CL/F (Cohort 5, 100 mg BID, steady state C1D8, mean ± SD): 69.6 ± 28.4 L/h | tmax (Cohort 5, 100 mg BID, steady state C1D8, median): 2.00 h | Cmax (Cohort 6, 300 mg BID, steady state C1D8, geometric mean): 2500 nM | CL/F [3]: 64.8 ± 23.2 L/h | Cmax [3]: 2710 ± 1220 nM | tmax (Cohort 6, 300 mg BID, steady state C1D8, median): 2.00 h | tmax (Cohort 6, 300 mg, first dose, median): 2.00 h | Cmax (Cohort 7, 300 mg BID, steady state C1D8, geometric mean): 2520 nM | CL/F (Cohort 7, 300 mg BID, steady state C1D8, mean ± SD): 65 ± 23.4 L/h | tmax (Cohort 7, 300 mg BID, steady state C1D8, median): 2.00 h | tmax (Cohort 7, 300 mg, first dose, median): 2.00 h | AUC(0-t) (Diagnosis DLBCL, first dose, mean ± SD): 2.29 ± 1.16 µM·h | AUC0-12 h [4]: 3.99 µM·h | CL/F [4]: 21.4 L/h and 28.6 L/h | Cmax [4]: 904 nM | tmax [4]: 4.0, 4.0 h | tmax (Diagnosis GU, first dose, median): 2.00 h | CL/F (Diagnosis GU, steady state C1D8, mean ± SD): 28.1 ± 10.0 L/h | tmax (Diagnosis GU, steady state C1D8, median): 2.00 h | Cmax (Diagnosis MEL, first dose, geometric mean): 809 nM | tmax (Diagnosis MEL, first dose, median): 2.00 h | CL/F (Diagnosis MEL, steady state C1D8, mean ± SD): 33.0 ± 10.0 L/h | tmax (Diagnosis MEL, steady state C1D8, median): 2.00 h | Cmax (Diagnosis NSCLC PD-L1 High, steady state C1D8, geometric mean): 815 nM | CL/F (Diagnosis NSCLC PD-L1 High, steady state C1D8, mean ± SD): 29.2 ± 10.4 L/h | Cmax (Diagnosis NSCLC PD-L1 Low/NE, first dose, mean ± SD): 914 ± 343 nM | tmax (Diagnosis NSCLC PD-L1 Low/NE, first dose, median): 1.00 h | CL/F (Diagnosis NSCLC PD-L1 Low/NE, steady state C1D8, mean ± SD): 26.9 ± 4.57 L/h | tmax (Diagnosis NSCLC PD-L1 Low/NE, steady state C1D8, median): 2.00 h | tmax (Diagnosis OC, first dose, median): 2.00 h | CL/F (Diagnosis OC, steady state C1D8, mean ± SD): 27.9 ± 8.82 L/h | tmax (Diagnosis OC, steady state C1D8, median): 2.00 h | AUC(0-t) [5]: 3.58 µM·h and 1.74 µM·h | Cmax [5]: 1350 nM and 418 nM | tmax [5]: 2.0 h | AUC(0-t) (Diagnosis SCCHN, first dose, mean ± SD): 2.32 ± 1.10 µM·h | tmax (Diagnosis SCCHN, first dose, median): 2.00 h | CL/F (Diagnosis SCCHN, steady state C1D8, mean ± SD): 33.3 ± 15.5 L/h | tmax (Diagnosis SCCHN, steady state C1D8, median): 2.00 h | tmax (Diagnosis TNBC, first dose, median): 2.00 h | CL/F (Diagnosis TNBC, steady state C1D8, mean ± SD): 25.7 ± 8.22 L/h
